# Article PMC8725163 (Acta Crystallographica. Section D, Structural Biology, 2022)
# Target: T1, BpsDsbA (oxidized) (Burkholderia pseudomallei, UniProt Q63Y08)
# T1 construct: gene dsbA
# Test: biochemical
# T1 sequence (Q63Y08 16-212 limits assumed): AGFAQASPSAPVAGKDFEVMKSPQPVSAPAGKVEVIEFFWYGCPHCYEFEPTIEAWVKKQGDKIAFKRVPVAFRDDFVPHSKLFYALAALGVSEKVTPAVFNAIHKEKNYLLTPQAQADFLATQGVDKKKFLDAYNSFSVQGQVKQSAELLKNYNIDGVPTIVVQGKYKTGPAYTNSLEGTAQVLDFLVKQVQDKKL
compound,measurement,value
"COc1ccc(S(=O)(=O)Nc2ccccc2)cc1 [compound 2, 4-methoxy-N-phenylbenzenesulfonamide]",Kd,> 2000 µM
